Experimental findings from US20070197610A1, “Benzisoxazoles” (Janssen Pharmaceutica N.V., priority 2004, published 2007) are described below.

Data set [1] concerns the target T1, D-amino acid oxidase (DAAO; EC 1.4.3.3) (Sus scrofa, UniProt P00371).
T1 construct: purchased Sigma
In words: In vitro inhibition of DAAO using the keto acid method. Particulars: DAAO 20 μg/ml, D-Alanine 15 mM, 10 min at room temperature, pH 8.3, absorbance at 450 nm; read-out: keto acid method pIC50 (converted). Type of data set: biochemical. Here is the method: (§1) D-amino acid oxidase (DAAO; EC 1.4.3.3) catalyzes the oxidation of D-stereo isomers of amino acids.
Two in vitro methods were developed to measure the catalytic activity of DAAO: • 1. The peroxide method: measures the amount of peroxide produced, using an auxiliary enzyme horse radish peroxidase • 2. […]
DAAO (20 μg/ml) is incubated for 10 min at room temperature with the substrate D-Alanine (15 mM) in 0.19 mM pyrophosphatebuffer pH 8.3 containing FAD (11 μg/ml), and bovine liver catalase (EC 1.11.1.6) (4.3 mg/ml) in a total volume of 50 μl. Compounds were added in a 0.5 μl volume to a final DMSO concentration of 1%. The reaction is stopped by adding 25 μl 1 mM […] dinitrophenylhydrazine in 1N HCl, After a second 10 min incubation at room temperature, 175 μl 0.6 N NaOH is added and the formed hydrazone is detected by measuring the absorbance at 450 nm. All products were purchased from Sigma.

Data set [2] has as its target T1, D-amino acid oxidase (DAAO; EC 1.4.3.3). In words: In vitro inhibition of DAAO using the peroxide method. Type of data set: biochemical. The note with it: DAAO 2.6 μg/ml, D-Alanine 7.5 mM, 60 minutes at room temperature, absorbance at 492 nm; read-out: H2O2 method pIC50 (converted). The protocol: as §1
Two in vitro methods were developed to measure the catalytic activity of DAAO: • 1. The peroxide method: measures the amount of peroxide produced, using an auxiliary enzyme horse radish peroxidase • 2. The keto acid method: measures the ax keto acid formed
The general reaction to determine the amount of peroxide produced by catalytic action of DAAO can be described as: [drawing 36]
DAAO (2.6 μg/ml) is incubated for 60 minutes at room temperature with the substrate D-Alanine (7.5 mM) in 0.019 M sodiumpyrophosphate buffer containing FAD(5.5 μg/ml), HRP (200 μg/ml), DHBS (1667 μg/ml) and 4-aminoantipyrine(500 μg/ml) in a total volume of 50 μl. Compounds were added in a 0.5 μl volume to a final DMSO concentration of 1%. The reaction was terminated by addition of 30 μl of 0.5M phosphate buffer pH 5.0. The quinone-imine dye was detected by measuring the absorbance at 492 nm. All products were purchased from Sigma.

T1 sequence (P00371 whole entry): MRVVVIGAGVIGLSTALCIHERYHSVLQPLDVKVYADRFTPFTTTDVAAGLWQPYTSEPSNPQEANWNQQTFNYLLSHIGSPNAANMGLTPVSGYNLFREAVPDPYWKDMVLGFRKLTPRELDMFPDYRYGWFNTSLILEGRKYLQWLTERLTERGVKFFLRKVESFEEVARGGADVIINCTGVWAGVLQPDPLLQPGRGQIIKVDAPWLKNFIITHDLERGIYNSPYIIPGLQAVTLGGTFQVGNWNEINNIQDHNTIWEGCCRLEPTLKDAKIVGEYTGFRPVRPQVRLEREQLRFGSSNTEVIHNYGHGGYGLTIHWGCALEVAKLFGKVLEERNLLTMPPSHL

For `Cc1ccc2on(C(=O)NC(C)C)c(=O)c2c1` [Compound 28], the IC50 is 2 µM in data set [1] and 3.98 µM in data set [2].

Take `CC(C)NC(=O)n1oc2ccc(Cl)cc2c1=O` [Compound 23]: the IC50 in data set [1] was 1 µM; in data set [2], 0.794 µM.

Turning to `Cc1cc(C(=O)Oc2noc3cc(Cl)ccc23)no1` [Compound 18], the IC50 was 0.126 µM in data set [1] and 0.0316 µM in data set [2].

Take `COc1ccc2c(O)noc2c1`: the melting point worked out at 208 °C.

As for `CC(C)NC(=O)n1oc2ccccc2c1=O` [Compound 29], the IC50 in data set [1] is 3.98 µM.

As to `CNC(=O)n1oc2ccc(Cl)cc2c1=O` [Compound 22], the IC50 in data set [1] was 0.794 µM; in data set [2] it was 0.631 µM.

With `CCCNC(=O)n1oc2ccc(Cl)cc2c1=O` [Compound 25], the figures for the IC50 in data set [1] and in data set [2] were 0.794 µM and 0.631 µM, respectively.

Regarding `CC(C)(C)NC(=O)n1oc2cc(Cl)ccc2c1=O` [Compound 27], the IC50 is 0.2 µM in data set [1] and 0.0501 µM in data set [2].

In turn, `O=C(/N=c1/c2ccccc2on1C(=O)c1ccccc1)c1ccccc1` [Compound 10] had a melting point of 97 to 100 °C.

`Cc1onc(-c2c(Cl)cccc2Cl)c1NC(=O)n1oc2ccc(Cl)cc2c1=O` [Compound 21]: the figures for the IC50 in data set [1] and in data set [2] were 1 µM and 0.631 µM, respectively.

In the case of `Cc1ccc2onc(OC(=O)c3cc(C)on3)c2c1` [Compound 19], the melting point was in the range of 126 to 128 °C. Also, in data set [1], the IC50 was 5.01 µM. Moreover, the IC50 in data set [2] was 3.98 µM.

As for `COc1ccc2c(=O)n(C(=O)NC(C)C)oc2c1` [Compound 1], the melting point came to 121 °C.

For the compound `Cc1ccc2on(C(=O)NC(C)(C)C)c(=O)c2c1` [Compound 26], the IC50 in data set [1] was 2 µM; in data set [2] it was 3.16 µM.

On to `Cc1onc(-c2c(Cl)cccc2Cl)c1C(=O)Oc1noc2ccc(Cl)cc12` [Compound 17], for which the IC50 was 1 µM in data set [1] and 0.631 µM in data set [2].
